28 molecules from patent US7737166B2, “Antifungal bicyclic hetero ring compounds” (Daiichi Sankyo Company, Limited, priority 2005, dated 2010) can be followed below.

SMILES strings stand for the structures. Converted amounts (≈) assume the structure as drawn.

Series [1] relates to C. glabrata ATCC48435. In words: Antifungal activity (GI80), growth inhibition in YPD20 medium by absorbance at 600 nm. The class given is cell-based. To be noted: 37° C., absorbance 600 nm; for GI80 (μg/ml) C. glabrata ATCC48435: minimum concentration for at least 80% cell growth inhibition; for IC80: Nakaseomyces glabratus, ATCC48435, minimum concentration for at least 80% cell growth inhibition, read-out: GI80 (μg/ml) C. glabrata ATCC48435. How it is done:
(§1) The antifungal activity of the compounds of the invention was determined according to the method mentioned below.
(§2) An YPD20 medium (1% yeast extract, 2% peptone, 20% glucose) was used,
(§3) (2) Preparation of Cell Liquid for Inoculation:
(§4) Cells incubated overnight with Sabouraud dextrose agar at 30° C. were suspended in 0.1% Tween 80-added saline, and then added to a concentrated medium (1.33% yeast extract, 2.67% peptone, 13.33% glucose) so that the final cell concentration could be 5×10^3 cells/ml, thereby preparing a cell liquid for inoculation.
(§5) (3) Production of Chemical Dilution Plate:
(§6) A metered sample was dissolved in dimethyl sulfoxide, and a 2-fold dilution series was prepared using dimethyl sulfoxide. A chemical dilution of 2 μl each was added to a flat-bottom 96-well plate with 40% glucose (48 μl) put in each well, thereby producing a chemical dilution plate.
(§7) (4) Inoculation and Cultivation of Cell Liquid:
(§8) The cell liquid (150 μl) prepared in (2) was added to the chemical dilution plate produced in (3), followed by aerobic static cultivation at 37° C.
(§9) (5) Determination of Antifungal Activity (GI80 Value):
(§10) After cultivation for […], the plate was stirred, and its absorbance (600 nm) was measured. Based on the absorbance as the index, the minimum chemical concentration for at least 80% cell growth inhibition relative to the cell growth in the chemical-free well was computed as a GI80 value.

The subject of series [2] is C. albicans ATCC MYA-573. Described as above. Type of series: cell-based. To be noted: minimum concentration for at least 80% cell growth inhibition, 37° C., absorbance 600 nm; for IC80: Candida albicans, read-out: GI80 (μg/ml) C. albicans ATCC MYA-573. How it is done:
as §1, §2, §3, §4, §5, §6, §7, §8, §9, §10

Series [3] concerns C. albicans ATCC90028. The series is described as above. Type of series: cell-based. To be noted: 37° C., absorbance 600 nm; for GI80 (μg/ml) C. albicans ATCC90028: minimum concentration for at least 80% cell growth inhibition; for IC80: Candida albicans, ATCC90028, minimum concentration for at least 80% cell growth inhibition, read-out: GI80 (μg/ml) C. albicans ATCC90028. How it is done: as §1, §2, §3, §4, §5, §6, §7, §8, §9, §10

As to `Cc1c(Br)c(N2CC[C@H](N(C)C)C2)c2oc(C3CC3)nc2c1C#N`, the melting point (usually the temperature, or range, at which the solid turns liquid) fell in the range of 82 to 86 °C. For the molecule `Cc1c(-c2ccccc2)c(N2CC[C@H](N(C)C)C2)c2oc(C(C)C)nc2c1C#N.Cl`, the melting point was 168 to 170 °C (dec.). `Cc1c(-c2ccccc2)c(N2CC[C@H](N(C)C)C2)c2oc(N3CC(CC(=O)O)C3)nc2c1C#N` returned a melting point of 125 to 128 °C. In the case of `Cc1c(-c2ccccc2)c(C2=CC(N(C)C)CC2)c2oc(C(C)(C)C)nc2c1C#N` (centres unmarked) [Example 3, 2-tert-Butyl-7-[3-(dimethylamino)cyclopent-1-en-1-yl]-5-methyl-6-phenyl-1,3-benzoxazole-4-carbonitrile], the melting point was in the range of 114 to 116 °C. The same measure, in the same setting: the figure for `Cc1c(-c2ccccc2)c(C2=CC(N(C)C)CC2)c2oc(C3CC3)nc2c1C#N` (centres unmarked) [Example 8, 2-Cyclopropyl-7-(3-dimethylaminocyclopent-1-en-1-yl)-5-methyl-6-phenyl-1,3-benzoxazole-4-carbonitrile] is 144 to 146 °C; for `Cc1c(-c2ccccc2)c(N2CC(N(C)C)C2)c2oc(C(C)(C)C)nc2c1C#N` [Example 15, 2-Tert-butyl-5-methyl-7-(3-dimethylaminoazetidin-1-yl)-6-phenyl-1,3-benzoxazole-4-carbonitrile] it is 211 to 212 °C; for `Cc1c(-c2ccco2)c(N2CC[C@H](N(C)C)C2)c2oc(C3CC3)nc2c1C#N` [Example 18, 2-Cyclopropyl-7-[(3S)-3-(dimethylamino)pyrrolidin-1-yl]-6-(2-furyl)-5-methyl-1,3-benzoxazole-4-carbonitrile] it is 158 to 159 °C.

As for `Cc1c(-c2ccccn2)c(N2CC[C@H](N(C)C)C2)c2oc(C3CC3)nc2c1C#N` [Example 20, 2-Cyclopropyl-7-[(3S)-3-(dimethylamino)pyrrolidin-1-yl]-5-methyl-6-(pyridin-2-yl)-1,3-benzoxazole-4-carbonitrile], the melting point was 150 to 151 °C. In turn, `Cc1c(-c2cnccn2)c(N2CC[C@H](N(C)C)C2)c2oc(C3CC3)nc2c1C#N` [Example 21, 2-Cyclopropyl-7-[(3S)-3-(dimethylamino)pyrrolidin-1-yl]-5-methyl-6-(pyrazin-2-yl)-1,3-benzoxazole-4-carbonitrile] showed a melting point of 157 to 159 °C.

For the molecule `CC(=O)c1c(C)c(C#N)c2nc(C3CC3)oc2c1N1CC[C@H](N(C)C)C1` [Example 26, 6-Acetyl-2-cyclopropyl-7-[(3S)-3-(dimethylamino)pyrrolidin-1-yl]-5-methyl-1,3-benzoxazole-4-carbonitrile], the melting point was 142 °C. `CNC(=O)c1nc2c(C#N)c(C)c(-c3ccccc3)c(N3CC[C@H](N(C)C)C3)c2o1` [Example 39, 4-Cyano-7-[(3S)-3-(dimethylamino)pyrrolidin-1-yl]-N,5-dimethyl-6-phenyl-1,3-benzoxazole-2-carboxamide] gave a melting point of 214 to 216 °C. Same read-out and setting: to `Cc1c(-c2ccccc2)c(N2CC[C@@H](N(C)C)C2)c2oc(C(=O)N(C)C)nc2c1C#N` [Example 40-2, 4-Cyano-N,N,5-trimethyl-7-[(3R)-3-(dimethylamino)pyrrolidin-1-yl]-6-phenyl-1,3-benzoxazole-2-carboxamide] belongs 67 to 70 °C; to `CN[C@@H]1CCN(c2c(-c3ccccc3)c(C)c(C#N)c3nc(C(=O)N(C)C)oc23)C1` [Example 40-3, 4-Cyano-N,N,5-trimethyl-7-[(3R)-3-(methylamino)pyrrolidin-1-yl]-6-phenyl-1,3-benzoxazole-2-carboxamide], 145 to 148 °C. Still for that read-out and setting: to `Cc1cc2c(c(N3CC[C@H](N(C)C)C3)c1-c1ccccc1)OC(C#N)(C(=O)N1CCCCC1)N2` (stereo partly drawn) [Example 43, 7-[(3S)-3-(dimethylamino)pyrrolidin-1-yl]-5-methyl-6-phenyl-2-(piperidin-1-ylcarbonyl)-1,3-benzoxazole-2-carbonitrile] belongs 170 to 173 °C; to `Cc1c(-c2ccccc2)c(N2CC[C@H](N(C)C)C2)c2oc(C(=O)N(C)CCc3ccccc3)nc2c1C#N` [Example 46, 4-Cyano-7-[(3S)-3-(dimethylamino)pyrrolidin-1-yl]-N,5-dimethyl-6-phenyl-N-(2-phenylethyl)-1,3-benzoxazole-2-carboxamide], 138 to 141 °C; to `Cc1c(-c2ccccc2)c(N2CC[C@H](N(C)C)C2)c2oc(N3CC(O)C3)nc2c1C#N` [Example 65, 7-[(3S)-3-(Dimethylamino)pyrrolidin-1-yl]-2-(3-hydroxyazetidin-1-yl)-5-methyl-6-phenyl-1,3-benzoxazole-4-carbonitrile], 219 to 221 °C. Same read-out and setting: the figure for `Cc1c(-c2ccccc2)c(N2CC[C@H](N(C)C)C2)c2oc(-c3cnn(C)c3)nc2c1C#N` [Example 74, 7-[(3S)-3-(Dimethylamino)pyrrolidin-1-yl]-5-methyl-2-(1-methyl-1H-pyrazol-4-yl)-6-phenyl-1,3-benzoxazole-4-carbonitrile] is 214 to 222 °C; for `Cc1c(-c2ccccc2)c(N2CC[C@H](N(C)C)C2)c2oc(N3CC(C)(O)C3)nc2c1C#N` [Example 99, 7-[(3S)-3-(Dimethylamino)-1-pyrrolidinyl]-2-(3-hydroxy-3-methylazetidin-1-yl)-5-methyl-6-phenyl-1,3-benzoxazole-4-carbonitrile] it is 167 to 169 °C.

For the molecule `Cc1c(-c2ccccc2)c(N2CC[C@H](N(C)C)C2)c2oc(-c3ccccc3N)nc2c1C#N` [Example 109, 2-(2-Aminophenyl)7-[(3S)-3-(dimethylamino)pyrrolidin-1-yl]-5-methyl-6-phenyl-1,3-benzoxazole-4-carbonitrile], the melting point is 259 to 263 °C. The same measure, in the same setting: to `Cc1c(-c2ccccc2)c(N2CC[C@H](N(C)C)C2)c2oc(-c3ccccc3O)nc2c1C#N` [Example 110, 7-[(3S)-3-(Dimethylamino)pyrrolidin-1-yl]-2-(2-hydroxyphenyl)-5-methyl-6-phenyl-1,3-benzoxazole-4-carbonitrile] belongs 159 to 162 °C; to `Cc1c(-c2ccccc2)c(N2CC[C@H](N(C)C)C2)c2oc(N3CCOCC3)nc2c1C#N` [Example 130, 7-[(3S)-3-(Dimethylamino)pyrrolidin-1-yl]-5-methyl-2-morpholin-4-yl-6-phenyl-1,3-benzoxazole-4-carbonitrile], 215 to 217 °C. In turn, `CCN[C@H]1CCN(c2c(-c3ccccc3)c(C)c(C#N)c3nc(C4CC4)oc23)C1` [Example 138, 2-Cyclopropyl-7-[(3S)-3-(ethylamino)pyrrolidin-1-yl]-5-methyl-6-phenyl-1,3-benzoxazole-4-carbonitrile] showed a melting point of 209 to 211 °C.

In turn, `Cc1c(-c2cccc(CF)c2)c(N2CC[C@H](N(C)C)C2)c2oc(C3CC3)nc2c1C#N` [Example 144-10, 2-Cyclopropyl-7-[(3S)-3-(dimethylamino)pyrrolidin-1-yl]-6-[3-(fluoromethyl)phenyl]-5-methyl-1,3-benzoxazole-4-carbonitrile] yielded a melting point of 104 to 107 °C. For the molecule `CNC[C@H]1CCN1c1c(-c2ccccc2)c(C)c(C#N)c2nc(C(=O)N(C)C)oc12` [Example 155], in series [1], the “GI80 (μg/ml) C. glabrata ATCC48435” value was 0.125 µg/mL (≈ 0.31 µM). The “GI80 (μg/ml) C. albicans ATCC MYA-573” value in series [2] amounted to 2 µg/mL (≈ 4.96 µM). Moreover, the “GI80 (μg/ml) C. albicans ATCC90028” value in series [3] stood at 0.5 µg/mL (≈ 1.24 µM). For the molecule `CNC1=CC(c2c(-c3ccccc3)c(C)c(C#N)c3nc(C(=O)N(C)C)oc23)CC1` (centres unmarked) [Example 156-1, 4-Cyano-N,N,5-trimethyl-7-[3-(methylamino)cyclopent-2-enyl]-6-phenyl-1,3-benzoxazole-2-carboxamide], the IC80 was 0.063 µg/mL (≈ 0.157 µM) in series [1], 0.25 µg/mL (≈ 0.624 µM) in series [2] and 0.25 µg/mL (≈ 0.624 µM) in series [3].

In the case of `CN[C@H]1CCN(c2c(-c3csc(C)n3)c(C)c(C#N)c3nc(C(=O)N(C)C)oc23)C1` [Example 158, 4-Cyano-N,N,5-trimethyl-7-[(3S)-3-(methylamino)pyrrolidin-1-yl]-6-(2-methyl-1,3-thiazol-4-yl)-1,3-benzoxazole-2-carboxamide], the “GI80 (μg/ml) C. glabrata ATCC48435” value in series [1] turned out to be 0.25 µg/mL (≈ 0.589 µM). Further, the “GI80 (μg/ml) C. albicans ATCC MYA-573” value in series [2] was found to be 2 µg/mL (≈ 4.71 µM). Besides, in series [3], the “GI80 (μg/ml) C. albicans ATCC90028” value is 0.5 µg/mL (≈ 1.18 µM). On to `OC(Cn1cncn1)(Cn1cncn1)c1ccc(F)cc1F` [FCZ, Fluconazole, reference compound], for which the IC80 in series [1] is over 4 µg/mL; in series [2] it was over 4 µg/mL; in series [3] it was 0.25 µg/mL (≈ 0.816 µM). Regarding `CCC(C)n1ncn(-c2ccc(N3CCN(c4ccc(OCC5COC(Cn6cncn6)(c6ccc(Cl)cc6Cl)O5)cc4)CC3)cc2)c1=O` (centres unmarked) [ITZ, Itraconazole, reference compound], the “GI80 (μg/ml) C. glabrata ATCC48435” value in series [1] stood at 0.25 µg/mL (≈ 0.354 µM). In addition, the “GI80 (μg/ml) C. albicans ATCC MYA-573” value in series [2] was 0.125 µg/mL (≈ 0.177 µM). For the same molecule, the “GI80 (μg/ml) C. albicans ATCC90028” value in series [3] is under 0.016 µg/mL.
